# Read-outs that look alike come from different tables or passages of the source.
# Columns and labels:
# [1] = system: mutant spoT DPD1848 line as compared to wild type EC100; assay type: cell-based, E. coli; conditions: for % improved spoT growth over wt: approximately 18 hours, spoT mutant percent growth minus wild type percent growth
# Description: Kinetic growth studies were performed for the DPD1848 and the control (EC100) using the Bioscreen C Automated Microbial Growth Curve Analyis System (Oy Growth Curves Ab Ltd., Helsinki, Finland), which is an automated 96 well plate system, that monitors growth of many cultures simultaneously, each in a volume of 150 μl. Overnight triplicate cultures of each strain were grown and diluted (1:10) into either LB or LB freshly supplemented with 0.2%, 0.3%. 0.4% or 0.6% 1-butanol (w/v). The growth of each culture was followed for approximately 18 hours. The triplicates were averaged and plotted in FIG. 3 as the final 18 hour time point, normalized to EC100, and given as the percent growth inhibition relative to the no butanol control for each strain.
# An additional kinetic growth study was performed as described above. The data is shown in FIG. 4 plotted as OD600 over time for the DPD1848 spoT mutant (A), and wild type (B, EC100).
# A Bioscreen experiment, as described in Example 3, was used to compare growth of the mutant spoT DPD1848 line as compared to wild type EC100 in the following chemicals:
# The growth of each culture was followed for approximately 18 hours. Triplicate samples were averaged, and expressed as the percent growth relative to the no chemical control for each strain. The data given in Table 8 is represented as percent growth improvement of the spoT mutant relative to wild type, which is the spoT mutant percent growth minus the wild type percent growth for each challenge.
# [2] = system: rpoZ insertion line (JW3624) and wild type BW25113; conditions: 0.4% 1-butanol; FIG. 5
# Description: The growth points of triplicate cultures were averaged and plotted in FIG. 5 as absorbance at OD600.
# [3] = system: rpoZ::kan line JW3624 and wild type control BW25113; conditions: 0.4 and 0.6% 1-butanol; FIG. 8
# Description: Cultures were grown in LB medium containing 0%, 0.4% or 0.6% 1-butanol in shake flasks. The experiments were performed by inoculating 100 ml of medium in a 250 ml plastic flask with 2 ml of an overnight culture grown from a single colony grown at 37° C. and incubating with shaking for approximately two doubling times (1 hour), to an OD600 between 0.2 and 0.3. Each culture was split into five 25 ml cultures in plastic screw top 125 ml flasks and the cultures were maintained at 37° C. in a shaking water bath at 200 rpm. The OD600 was monitored at 0, 30, 90, 120 190, and 260 minutes.
# In the cultures above, a final time point was taken at 18 hr and used to calculate growth yield as a function of 1-butanol challenge. For each line grown in 0, 0.4% or 0.6% 1-butanol, the final 18 hour time point was divided by the no 1-butanol 18 hr time point.
# [4] = system: DPD1850 (spoT), DPD1848 (spoT), DPD1865 (rpoZ) and the EC100 control; conditions: 0.5% (w/v) 1-butanol; LB, 37° C.; FIG. 2
# Description: After a further 2 hr incubation at 37° C. with shaking, 200 μl samples were transferred to a microtiter plate and optical density at A600 recorded. The microtiter plate was moved to a platform shaker that was located within a plastic box that is in a 37° C. incubator.
# E. coli strain EC100 = conditions: LB agar, closed chamber, 37° C., 1 day
# Description: LB agar media supplemented with butanol was prepared fresh one day before innoculating at an appropriate volume and cooled for 2 hours in a 50° C. water bath. LB agar plates supplemented with butanol were prepared by dispensing 67 mls of melted agar, using a peristaltic pump and sterile Nalgene tubing, into sterile Omni trays with lids (Nunc mfg no. 242811). […] The plates were allowed to cool and set for approximately an hour before they were stored overnight in closed anaerobic chambers at room temperature in the chemical/biological hood. The next morning, the chambers harboring the plates were opened and allowed to air dry for approximately 1 hour before using.
# Plates were incubated in a closed chamber at 37° C. for 1 day. The number of colonies arising and their sizes were scored. […] Butanol concentrations of 0.4% and 0.6% were chosen to screen for tolerance.
# [5] = system: relA::kan line (strain JW2755) and the parent BW25113; assay type: cell-based, E. coli K12
# Description: A strain of E. coli K12 having a kanamycin marker insertion in the relA coding region (relA::kan) is available in the Keio knockout collection that is described in Example 4. Overnight cultures of the relA::kan line (strain JW2755) and the parent BW25113 were inoculated with fresh colonies and grown in LB at 37° C. with shaking. The next day the cultures were diluted 1:100 into 100 ml of fresh LB in a 1 liter flask and grown for approximately 2 hours. The culture was split into 20 ml aliquots in 125 ml plastic screw top flasks. One culture remained unaltered serving as the no add control, and various concentrations of either 2-butanol or isobutanol were added to the remaining flasks. Absorbance (OD600) was monitored over time. Using a 3 hr time point for growth in isobutanol and a 2.5 hr time point for growth in 2-butanol, fractional growth yields were determined and percent improvement was calculated by subtracting […] and multiplying by 100.
# [6] = system: Lactobacillus plantarum PN0512; assay: Growth rate in Lacto Synthetic Medium with isobutanol, parental control; assay type: cell-based; conditions: for Growth rate: PN0512, 30° C., LSM
# Description: (§1) Strains MS0280 and MS0281, and Lactobacillus plantarum PN0512 (ATCC #PTA-7727), were tested for tolerance to isobutanol. The strains were streaked on semi-synthetic medium plates, pH 6 (medium composition: 10 mM ammonium sulfate, 5 mM potassium phosphate buffer, pH 6.0, 50 mM MES, pH 6.0, 2 mM MgCl2, 0.7 mM CaCl2, 50 μM MnCl2, 1 μM FeCl3, 1 μM ZnCl2, 1.72 μM CuCl2, 2.53 μM CoCl2, 2.42 μM Na2MoO4, 2 μM thiamine hydrochloride, 10 mM glucose, 0.01% casamino acids, 0.2% yeast extract and 1.5% agar), from frozen stock cultures. The plates that the two mutants (MS0280 and MS0281) were streaked onto also included chloramphenicol at 10 μg/ml. The plates were incubated overnight at 30° C. under anaerobic conditions. The next day, overnight cultures were started by inoculating Lacto Synthetic Medium (LSM; medium composition: 10 mM ammonium sulfate, 5 mM potassium phosphate buffer, pH 6.0, 50 mM MES, pH 6.0, 2 mM MgCl2, 0.7 mM CaCl2, 50 μM MnCl2, 1 μM FeCl3, 1 μM ZnCl2, 1.72 μM CuCl2, 2.53 μM CoCl2, 2.42 μM Na2MoO4, 2 μM thiamine hydrochloride, 10 mM glucose, 0.01% casamino acids and 0.2% yeast extract) with a diluted (1:6) culture with an initial OD600 of 0.02. These overnight cultures were allowed to incubate at 30° C. in a gently shaking water bath. The next morning, the overnight cultures were diluted to have an initial OD600 of 0.1, in a volume of 220 ml of LSM. These starter cultures were allowed to incubate at 30° C. in a gently shaking water bath for 1.25 hours, to ensure the cultures were not in a lag phase. At this time, 20 ml aliquots were dispensed to duplicate flasks containing different volumes of isobutanol, to give final concentrations of 0, 0.5, 1, 1.5 and 2%. The growth of each flask was followed by taking OD600 readings every hour. The natural log of the OD600 values were plotted on a linear scale vs time.
# [7] = system: L. plantarum spoT mutant MS0281; assay: Growth rate in Lacto Synthetic Medium with isobutanol, spoT mutant MS0281; assay type: cell-based, Lactobacillus plantarum; conditions: for Growth rate: MS0281, 30° C., LSM
# Description: as §1
# [8] = system: L. plantarum spoT mutant MS0280; assay: Growth rate in Lacto Synthetic Medium with isobutanol, spoT mutant MS0280; assay type: cell-based, Lactobacillus plantarum; conditions: for Growth rate: MS0280, 30° C., LSM
# Description: as §1
compound,measurement,setting,value
CCCCO [1-butanol],Tolerance of spoT mutant versus wild type strain in terms of growth rate,"[1]; all concentrations of 1-butanol tested (0.2%, 0.3%, 0.4%, 0.6% w/v), FIG. 4",more tolerant
same,% improved spoT growth over wt,[1]; chemical at 0.2% (w/v),11.4%
same,% improved spoT growth over wt,[1]; chemical at 0.3% (w/v),13.8%
same,% improved spoT growth over wt,[1]; chemical at 0.4% (w/v),about 16.5%
same,% improved spoT growth over wt,"[1]; chemical at 0.4% (w/v), listed as 1-BuOH",16.5%
same,% improved spoT growth over wt,[1]; chemical at 0.6% (w/v),9.7%
same,Butanol tolerant phenotype of rpoZ insertion line (OD600 growth),[2],butanol tolerant phenotype was seen
same,Growth yield of rpoZ mutant versus wild type (18 hr time point divided by no 1-butanol 18 hr time point),[3],higher growth yields than wild type
same,Growth of spoT and rpoZ lines relative to EC100 (difference between 4 and 2 hr time points),[4],improved growth
same,Concentration at which only pinpoint colonies were seen,E. coli strain EC100,0.6%
same,Concentration from which colonies were progressively smaller,E. coli strain EC100,≥ 0.2%
same,Concentrations at which no colony formation was observed after overnight incubation,E. coli strain EC100,≥ 0.7 % (w/v)
CCC(C)O (stereo not drawn) [2-butanol],Percent improvement of fractional growth yield of relA mutant relative to the parent,"[5]; 0.6% 2-butanol, 2.5 hr time point, FIG. 10B",small improvement
same,Percent improvement of fractional growth yield of relA mutant relative to the parent,"[5]; 0.8% 2-butanol, 2.5 hr time point, FIG. 10B",small improvement
same,% improved spoT growth over wt,[1]; chemical at 0.80% (w/v),about 7%
same,% improved spoT growth over wt,"[1]; chemical at 0.80% (w/v), listed as 2-BuOH",7.2%
same,% improved spoT growth over wt,[1]; chemical at 1.20% (w/v),0%
same,% improved spoT growth over wt,[1]; chemical at 1.40% (w/v),0%
same,% improved spoT growth over wt,[1]; chemical at 1.60% (w/v),0%
CCC(C)=O [2-butanone],% improved spoT growth over wt,[1]; chemical at 3% (w/v),about 3%
"CCC(C)=O [MEK, methyl ethyl ketone]",% improved spoT growth over wt,[1]; chemical at 2.50% (w/v),0%
same,% improved spoT growth over wt,[1]; chemical at 3% (w/v),3.1%
same,% improved spoT growth over wt,[1]; chemical at 3.50% (w/v),4.3%
same,% improved spoT growth over wt,[1]; chemical at 4% (w/v),33.5%
CC(C)CO [isobutanol],Growth rate,[6]; isobutanol concentration 0.5%,0.424 μ/hour
same,Growth rate,[6]; isobutanol concentration 1%,0.385 μ/hour
same,Growth rate,[6]; isobutanol concentration 1.5%,0.364 μ/hour
same,Growth rate,[6]; isobutanol concentration 2%,0.349 μ/hour
same,Growth rate inhibition,"[6]; the parent (PN0512), 0.5% isobutanol, growth rates in presence and absence of isobutanol compared",9%
same,Percent improvement of fractional growth yield of relA mutant relative to the parent,"[5]; 0.8% isobutanol, 3 hr time point, FIG. 10A",small improvement
same,% improved spoT growth over wt,[1]; chemical at 0.80% (w/v),about 13.5%
same,% improved spoT growth over wt,"[1]; chemical at 0.80% (w/v), listed as IsoBuOH",13.5%
same,% improved spoT growth over wt,[1]; chemical at 1.20% (w/v),12.1%
same,% improved spoT growth over wt,[1]; chemical at 1.40% (w/v),11.4%
same,% improved spoT growth over wt,[1]; chemical at 1.60% (w/v),10.7%
same,Growth rate,[7]; isobutanol concentration 0.5%,0.467 μ/hour
same,Growth rate,[7]; isobutanol concentration 1%,0.426 μ/hour
same,Growth rate,[7]; isobutanol concentration 1.5%,0.397 μ/hour
same,Growth rate,[7]; isobutanol concentration 2%,0.359 μ/hour
same,Growth rate inhibition,"[7]; the mutants (MS0281), 0.5% isobutanol, growth rates in presence and absence of isobutanol compared",5%
same,Growth rate,[8]; isobutanol concentration 0.5%,0.464 μ/hour
same,Growth rate,[8]; isobutanol concentration 1%,0.426 μ/hour
same,Growth rate,[8]; isobutanol concentration 1.5%,0.382 μ/hour
same,Growth rate,[8]; isobutanol concentration 2%,0.359 μ/hour
same,Growth rate inhibition,"[8]; the mutants (MS0280), 0.5% isobutanol, growth rates in presence and absence of isobutanol compared",5%

# Reference: patent US8372612B2, “Production of four carbon alcohols using improved strain” (Butamax(TM) Advanced Biofuels LLC, priority 2007, dated 2013)
